The results in this text go back to patent US20240116985A1, “STAPLED PEPTIDES AND METHODS THEREOF” (priority 2020, published 2024).

One experiment deals with COLO320DM cells. Format: cell-based. As to conditions: COLO320DM cells, read-out: COLO320DM Proliferation Abs IC50. On the procedure: COLO320DM proliferation assay IC50: In some embodiments, inhibition of cell proliferation by provided technologies were assessed using cell lines related to or from certain conditions, disorders or diseases. In some embodiments, cell proliferation was assessed in COLO320DM cells. In some embodiments, assessment was performed using the following procedure: On Day 1, cultured COLO320DM cells in a T75 flask were trypsinized in 3 mL of 0.25% trypsin/EDTA for 5 min and quenched with 10 mL RPMI-1640+4% HI FBS assay media. The cells were spun down at 1200 rpm for 5 min, the cell pellet collected and re-suspended at 5000 cells/mL in assay media. Using a Combi liquid handler, cells were dispensed (50 uL, 250 cells/well) into three 384 well plates. Plates were incubated at 37° C., […]. On day 2, compounds were added. A liquid handling system was used to prepare the compound dilution and dispense compound into assay plates. The compounds were serially diluted 1/2 in 90% DMSO to create a 7 point dose curve. From compound plate, 100 nL of compound were dispensed directly into wells of the assay plates to create a dose curve starting at 20 uM and ending at 313 nM. Assay plates were incubated at 37° C., […]. On day 6, assay plates were removed from the incubator and allowed to sit at room temperature for 30 min. Using a liquid handler, 20 uL of CellTiter Glo reagent was added to each well. The assay plates were shaken for 2 min and allowed to sit on the bench for 10-15 minutes. The assay plates were read using the CellTiter Glo protocol on a GloMax microplate reader, and the data analyzed using GraphPad Prism.

The target of experiment [1] is T1, full-length beta-Catenin (Uniprot ID P35222) (Homo sapiens, UniProt P35222).
T1 construct: 10 nM full-length beta-Catenin (Uniprot ID P35222)
T1 sequence (P35222 1-781): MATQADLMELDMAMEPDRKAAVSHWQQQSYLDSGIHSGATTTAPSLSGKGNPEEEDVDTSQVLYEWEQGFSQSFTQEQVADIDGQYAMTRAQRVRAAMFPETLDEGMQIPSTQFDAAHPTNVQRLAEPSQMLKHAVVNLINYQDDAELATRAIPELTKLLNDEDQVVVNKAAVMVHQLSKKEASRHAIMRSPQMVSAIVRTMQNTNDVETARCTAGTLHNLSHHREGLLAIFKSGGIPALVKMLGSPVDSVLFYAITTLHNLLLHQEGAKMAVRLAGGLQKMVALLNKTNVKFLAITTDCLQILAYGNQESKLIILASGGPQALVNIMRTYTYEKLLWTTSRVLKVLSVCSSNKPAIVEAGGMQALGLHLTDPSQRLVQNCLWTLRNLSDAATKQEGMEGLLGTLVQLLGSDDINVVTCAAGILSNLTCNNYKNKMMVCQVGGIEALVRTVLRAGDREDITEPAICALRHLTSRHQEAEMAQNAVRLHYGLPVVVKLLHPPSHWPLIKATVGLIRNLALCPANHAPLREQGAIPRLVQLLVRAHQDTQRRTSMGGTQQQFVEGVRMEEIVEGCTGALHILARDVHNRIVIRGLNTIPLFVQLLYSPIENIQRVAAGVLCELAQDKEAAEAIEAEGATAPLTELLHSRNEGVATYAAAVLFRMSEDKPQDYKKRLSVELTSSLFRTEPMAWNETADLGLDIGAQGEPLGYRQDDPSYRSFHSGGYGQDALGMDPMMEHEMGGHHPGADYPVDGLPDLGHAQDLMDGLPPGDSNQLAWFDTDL
The experiment in a line: Fluorescence polarization IC50 (beta-catenin / 5FAM-TCF4 10-53 competition). Format: binding. As to conditions: fluorescence polarization. In general terms: In fluorescence polarisation assays a small probe gives low polarisation when free and higher when bound to something large.

In experiment [2] the target is T2, beta-catenin/TCF4 engagement (Homo sapiens, UniProt P35222).
T2 construct: expressed in transfected cells; host or cells: HEK293
T2 sequence (P35222 1-781): T1 sequence (P35222 1-781)
The experiment in a line: Nano-BRET target engagement assay (B-cat-Halo & TCF4-Luc in HEK293 cells). It counts as cell-based. (BRET reads energy transfer from a luciferase to a nearby fluorophore.)

[3] abbreviates: absolute IC50, read-out: NanoBRET Abs IC50.

Where two headings read alike, the source gives them in different places.

Take `CC(=O)N1CCC[C@]12CC=CCCCC1(CCCC=CCCCOC(=O)N3CC[C@@](C(=O)N[C@@H](Cc4ccccc4Cl)C(=O)N[C@@H](Cc4csc5ccccc45)C(=O)N[C@@H](CC(N)=O)C(N)=O)(C3)NC(=O)[C@H](CC(C)C)NC(=O)[C@H](Cc3ccccc3)NC(=O)[C@H](C)NC(=O)[C@H](C)NC(=O)[C@H](Cc3cccc(C(=O)O)c3)NC(=O)[C@H](CC(=O)O)NC1=O)NC(=O)[C@H](CC(C)(C)C)NC(=O)[C@H](CC(=O)O)NC2=O` (stereo partly drawn) [I-1904, Ac-PL3-Asp-Npg-B5-Asp-3COOHF-Ala-Ala-Phe-Leu-PyrS2-2C1F-BztA-Asn-NH2]: the IC50 with COLO320DM cells is over 20000 nM; in experiment [1] (read-out: beta-Catenin FP IC50), 15 nM; in experiment [2] (read-out: NanoBRET Abs IC50), 4.2 µM.
The matching figures for `CC(=O)N1CCC[C@]12CC=CCCCC1(CCCC=CCCCOC(=O)N3CC[C@@](C(=O)N[C@@H](Cc4ccccc4Cl)C(=O)N[C@@H](Cc4csc5ccccc45)C(=O)N[C@@H](CC(N)=O)C(=O)N[C@@H](C)C(=O)N[C@@H](C)C(=O)N[C@@H](C)C(N)=O)(C3)NC(=O)[C@H](CC(C)C)NC(=O)[C@H](Cc3ccccc3)NC(=O)[C@H](C)NC(=O)[C@H](C)NC(=O)[C@H](Cc3cccc(C(=O)O)c3)NC(=O)[C@H](CC(=O)O)NC1=O)NC(=O)[C@H](CC(C)(C)C)NC(=O)[C@H](CC(=O)O)NC2=O` (stereo partly drawn) [I-2040, Ac-PL3-Asp-Npg-B5-Asp-3COOHF-Ala-Ala-Phe-Leu-PyrS2-2C1F-BztA-Asn-Ala-Ala-Ala-NH2]: over 20000 nM, 24 nM and 2.8 µM.
Regarding `CC(=O)N1CCC[C@]12CC=CCCCC1(CCCC=CCCCOC(=O)N3CC[C@@](C(=O)N[C@@H](Cc4ccsc4)C(=O)N[C@@H](Cc4csc5ccccc45)C(=O)N[C@@H](CC(N)=O)C(N)=O)(C3)NC(=O)[C@H](Cc3ccccc3)NC(=O)[C@H](Cc3ccccc3)NC(=O)[C@H](C)NC(=O)[C@H](C)NC(=O)[C@H](Cc3cccc(C(=O)O)c3)NC(=O)[C@H](CC(=O)O)NC1=O)NC(=O)[C@H](CC(C)(C)C)NC(=O)[C@H](CC(=O)O)NC2=O` (stereo partly drawn) [I-2044, Ac-PL3-Asp-Npg-B5-Asp-3COOHF-Ala-Ala-Phe-Phe-PyrS2-3Thi-BztA-Asn-NH2], the figures for the IC50 (with COLO320DM cells; in experiment [1] (read-out: beta-Catenin FP IC50); in experiment [2] (read-out: NanoBRET Abs IC50)) were over 20000 nM, 9 nM and 2.6 µM, respectively.
As to `CC(=O)N1CCC[C@]12CC=CCCCC1(CCCC=CCCCOC(=O)N3CC[C@@](C(=O)N[C@@H](Cc4ccsc4)C(=O)N[C@@H](Cc4csc5ccccc45)C(=O)N[C@@H](CC(N)=O)C(=O)N[C@@H](C)C(=O)N[C@@H](C)C(=O)N[C@@H](C)C(=O)N[C@@H](C)C(=O)N[C@@H](C)C(N)=O)(C3)NC(=O)[C@H](CC(C)C)NC(=O)[C@H](Cc3ccccc3)NC(=O)[C@H](C)NC(=O)[C@H](C)NC(=O)[C@H](Cc3cccc(C(=O)O)c3)NC(=O)[C@H](CC(=O)O)NC1=O)NC(=O)[C@H](CC(C)(C)C)NC(=O)[C@H](CC(=O)O)NC2=O` (stereo partly drawn) [I-2268, Ac-PL3-Asp-Npg-B5-Asp-3COOHF-Ala-Ala-Phe-Leu-PyrS2-3Thi-BztA-Asn-Ala-Ala-Ala-Ala-Ala-NH2], the IC50 in the experiment on COLO320DM cells (absolute IC50) amounted to 4300 nM; in experiment [1] (read-out: beta-Catenin FP IC50), 13 nM; in experiment [2] (setting [3]), 3.1 µM.
Consider `CC(=O)N1CCC[C@]12CC=CCCCC1(CCCC=CCCCOC(=O)N3CC[C@@](C(=O)N[C@@H](Cc4ccsc4)C(=O)N[C@@H](Cc4csc5ccccc45)C(=O)N[C@@H](CC(N)=O)C(=O)N[C@@H](C)C(=O)N[C@@H](C)C(=O)N[C@@H](C)C(=O)N[C@@H](C)C(=O)N[C@@H](C)C(=O)N[C@@H](C)C(=O)N[C@@H](C)C(N)=O)(C3)NC(=O)[C@H](CC(C)C)NC(=O)[C@H](Cc3ccccc3)NC(=O)[C@H](C)NC(=O)[C@H](C)NC(=O)[C@H](Cc3cccc(C(=O)O)c3)NC(=O)[C@H](CC(=O)O)NC1=O)NC(=O)[C@H](CC(C)(C)C)NC(=O)[C@H](CC(=O)O)NC2=O` (stereo partly drawn) [I-2269], for which the IC50 in the experiment with COLO320DM cells (absolute IC50) was 3900 nM; in experiment [1] (beta-Catenin FP IC50 (nM)), 20 nM; in experiment [2] (NanoBRET Abs IC50 (uM), absolute IC50) it was 2.3 µM.
Turning to `CC(=O)N1CCC[C@]12CC=CCCCC1(CCCC=CCCCOC(=O)N3CC[C@@](C(=O)N[C@@H](Cc4ccsc4)C(=O)N[C@@H](Cc4csc5ccccc45)C(=O)N[C@@H](CC(N)=O)C(=O)N[C@@H](C)C(=O)NC(C)(C)C(=O)N[C@@H](C)C(N)=O)(C3)NC(=O)[C@H](CC(C)C)NC(=O)[C@H](Cc3ccccc3)NC(=O)[C@H](C)NC(=O)[C@H](C)NC(=O)[C@H](Cc3cccc(C(=O)O)c3)NC(=O)[C@H](CC(=O)O)NC1=O)NC(=O)[C@H](CC(C)(C)C)NC(=O)[C@H](CC(=O)O)NC2=O` (stereo partly drawn) [I-2271, Ac-PL3-Asp-Npg-B5-Asp-3COOHF-Ala-Ala-Phe-Leu-PyrS2-3Thi-BztA-Asn-Ala-Aib-Ala-NH2], the values for the IC50 (with COLO320DM cells (absolute IC50); in experiment [1] (read-out: beta-Catenin FP IC50); in experiment [2] (setting [3])) were 9000 nM, 13 nM and 2.3 µM, respectively.
For `CC(=O)N1CCC[C@]12CC=CCCCC1(CCCC=CCCCOC(=O)N3CC[C@@](C(=O)N[C@@H](Cc4ccsc4)C(=O)N[C@@H](Cc4csc5ccccc45)C(=O)N[C@@H](CC(N)=O)C(=O)N[C@@H](CC(C)C)C(N)=O)(C3)NC(=O)[C@H](CC(C)C)NC(=O)[C@H](Cc3ccccc3)NC(=O)[C@H](C)NC(=O)[C@H](C)NC(=O)[C@H](Cc3cccc(C(=O)O)c3)NC(=O)[C@H](CC(=O)O)NC1=O)NC(=O)[C@H](CC(C)(C)C)NC(=O)[C@H](CC(=O)O)NC2=O` (stereo partly drawn) [I-2274, Ac-PL3-Asp-Npg-B5-Asp-3COOHF-Ala-Ala-Phe-Leu-PyrS2-3Thi-BztA-Asn-Leu-NH2], in that order: 6200 nM, 10 nM and 2 µM.
For `CC(=O)N1CCC[C@]12CC=CCCCC1(CCCC=CCCCOC(=O)N3CC[C@@](C(=O)N[C@@H](Cc4ccccc4C(F)(F)F)C(=O)N[C@@H](Cc4csc5ccccc45)C(=O)N[C@@H](CCC(=O)N(C)C)C(N)=O)(C3)NC(=O)[C@H](CC(C)C)NC(=O)[C@H](Cc3ccccc3)NC(=O)[C@H](C)NC(=O)[C@H](CCC(=O)N(C)C)NC(=O)[C@H](Cc3cccc(C(=O)O)c3)NC(=O)[C@H](CC(=O)O)NC1=O)NC(=O)[C@H](CC(C)(C)C)NC(=O)[C@H](CC(=O)O)NC2=O` (stereo partly drawn) [I-2300, Ac-PL3-Asp-Npg-B5-Asp-3COOHF-[NMe2]GlnR-Ala-Phe-Leu-PyrS2-2F3MeF-BztA-INMe2]GlnR-NH2], in that order: over 20000 nM, 6 nM and 1.2 µM.
Take `CC(=O)N1CCC[C@]12CC=CCCCC1(CCCC=CCCCOC(=O)N3CC[C@@](C(=O)N[C@@H](Cc4ccccc4C(F)(F)F)C(=O)N[C@@H](Cc4csc5ccccc45)C(=O)N[C@@H](C)C(N)=O)(C3)NC(=O)[C@H](CC(C)C)NC(=O)[C@H](Cc3ccccc3)NC(=O)[C@H](C)NC(=O)[C@H](CCC(=O)N3CCOCC3)NC(=O)[C@H](Cc3cccc(C(=O)O)c3)NC(=O)[C@H](CC(=O)O)NC1=O)NC(=O)[C@H](CC(C)(C)C)NC(=O)[C@H](CC(=O)O)NC2=O` (stereo partly drawn) [I-2315, Ac-PL3-Asp-Npg-B5-Asp-3COOHF-[Morph]GlnR-Ala-Phe-Leu-PyrS2-2F3MeF-BztA-Ala-NH2]: the results for the IC50 (in the experiment with COLO320DM cells (absolute IC50); in experiment [1] (read-out: beta-Catenin FP IC50); in experiment [2] (setting [3])) were over 20000 nM, 5 nM and 1.2 µM, respectively.
